These results are taken from PMC2654718 (Biochemistry, 2009).

The target of data set [1] is T1, VDR-LBD (Homo sapiens, UniProt P11473, DEL165-215).
T1 sequence (P11473 with tags, fused parts or gaps DEL165-215 limits assumed): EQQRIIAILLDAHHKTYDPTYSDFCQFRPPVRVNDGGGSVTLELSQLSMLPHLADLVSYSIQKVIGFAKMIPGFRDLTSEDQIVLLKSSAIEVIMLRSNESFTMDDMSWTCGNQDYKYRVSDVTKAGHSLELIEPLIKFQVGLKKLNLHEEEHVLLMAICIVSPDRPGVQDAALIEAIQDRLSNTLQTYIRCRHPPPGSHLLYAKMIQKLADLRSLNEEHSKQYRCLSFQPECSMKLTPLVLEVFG
As to the kind of experiment: Isothermal titration calorimetry of SRC2-3 peptides with VDR-LBD. The following applies: 25 °C, 20 mM HEPES pH 7.5, 150 mM NaCl; for n: ITC stoichiometry; for ΔH: ITC.

For data set [2], the system named is serum vitamin D binding protein. The note with it: cited from earlier work.
For data set [3] the following is noted: mice; cited from earlier work.
In data set [4] the target is T2, MBP-VDR-LBDmt (Homo sapiens, UniProt P11473, DEL165-215).
T2 sequence (P11473 with tags, fused parts or gaps DEL165-215 limits assumed): T1 sequence (P11473 with tags, fused parts or gaps DEL165-215 limits assumed)
As to the kind of experiment: Fluorescence polarization peptide binding assay. The note with it: FP.

In the case of `CC(C)C[C@H](NC(=O)[C@H](C)NC(=O)[C@H](CC(N)=O)NC(=O)[C@H](CCC(=O)O)NC(=O)[C@H](CCCCN)NC(=O)[C@H](CCCCN)NC(=O)[C@H](CCCCN)NC(=O)[C@@H](N)CSC1CC(=O)N(CCNS(=O)(=O)c2ccc(C3=c4cc5c6c(c4Oc4c3cc3c7c4CCCN7CCC3)CCC[N+]=6CCC5)c(S(=O)(=O)[O-])c2)C1=O)C(=O)N[C@@H](CC(C)C)C(=O)N[C@@H](CCCNC(=N)N)C(=O)N[C@@H](Cc1ccc(O)cc1)C(=O)N[C@@H](CC(C)C)C(=O)N[C@@H](CC(C)C)C(=O)N[C@@H](CC(=O)O)C(=O)N[C@@H](CCCCN)C(=O)N[C@@H](CC(=O)O)C(=O)N[C@@H](CC(=O)O)C(=O)N[C@H](C(=O)N[C@@H](CCCCN)C(=O)N[C@@H](CC(=O)O)C(=O)O)[C@@H](C)O` (some centres unmarked) [SRC2-3_Texas-Red], in data set [1], the n is given as 0.93±0.04 and the ΔH is -2.2 ± 0.12 kcal/mol.

Regarding `CCC(CC)(c1ccc(OCC(O)CO)c(C)c1)c1ccc(OCC(O)C(C)(C)C)c(C)c1` (centres unmarked) [LG190178], the “Binding to serum vitamin D binding protein (in words)” value in data set [2] is on record as “does not bind”. In addition, in data set [3], the “Influence on calcium serum levels (in words)” value is given as “no influence”.

As for `CC(C)C[C@H](NC(=O)[C@H](C)NC(=O)[C@H](CC(N)=O)NC(=O)[C@H](CCC(=O)O)NC(=O)[C@H](CCCCN)NC(=O)[C@H](CCCCN)NC(=O)[C@H](CCCCN)NC(=O)[C@@H](N)CS)C(=O)N[C@@H](CC(C)C)C(=O)N[C@@H](CCCNC(=N)N)C(=O)N[C@@H](Cc1ccc(O)cc1)C(=O)N[C@@H](CC(C)C)C(=O)N[C@@H](CC(C)C)C(=O)N[C@@H](CC(=O)O)C(=O)N[C@@H](CCCCN)C(=O)N[C@@H](CC(=O)O)C(=O)N[C@@H](CC(=O)O)C(=O)N[C@H](C(=O)N[C@@H](CCCCN)C(=O)N[C@@H](CC(=O)O)C(=O)O)[C@@H](C)O` [SRC2-3], in data set [1], the n is 1.02±0.02 and the ΔH was -6.7 ± 0.3 kcal/mol. Moreover, in data set [4] (in the presence of ligand), the “Binding affinity towards VDR (in words)” value is “High affinity binding”. In addition, the “Binding in the absence of ligand (in words)” value in data set [4] (no ligand, no plateau at higher protein concentrations) is “weak or no binding”.
